Reference: BindingDB's records for doi:10.1021/acs.jmedchem.8b01153 (2019)

Legend:
[1] = target: T1, Induced myeloid leukemia cell differentiation protein Mcl-1 (Homo sapiens, UniProt Q07820); assay: Binding affinity to MCl-1 (unknown origin) assessed as dissociation rate constant for state one
[2] = target: T1, Induced myeloid leukemia cell differentiation protein Mcl-1; assay: Binding affinity to MCl-1 (unknown origin) assessed as dissociation rate constant for state two

T1 sequence (Q07820 whole entry): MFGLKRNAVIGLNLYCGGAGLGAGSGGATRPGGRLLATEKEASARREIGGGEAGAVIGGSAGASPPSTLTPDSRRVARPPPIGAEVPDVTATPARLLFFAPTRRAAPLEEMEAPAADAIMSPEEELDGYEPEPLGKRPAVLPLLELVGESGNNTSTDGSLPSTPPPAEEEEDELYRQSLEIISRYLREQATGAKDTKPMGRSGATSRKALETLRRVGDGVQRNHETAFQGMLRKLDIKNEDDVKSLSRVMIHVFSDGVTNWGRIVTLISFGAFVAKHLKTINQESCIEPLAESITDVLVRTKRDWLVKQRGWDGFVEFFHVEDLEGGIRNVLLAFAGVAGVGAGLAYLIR

| koff [1] | koff [2] | SMILES |
| --- | --- | --- |
| 0.13 s⁻¹ | 0.01 s⁻¹ | Cc1c(-c2cccc3c(CCCOc4cccc5ccccc45)c(C(=O)O)n(C)c23)c(COc2ccc(B(O)O)c(C=O)c2)nn1C [7-(3-((4-Borono-3-formylphenoxy)methyl)-1,5-dimethyl-1Hpyrazol-4-yl)-1-methyl-3-(3-(naphthalen-1-yloxy)propyl)-1H-indole-2-carboxylic acid, 11] |
| 0.14 s⁻¹ | 0.018 s⁻¹ | Cc1c(-c2cccc3c(CCCOc4cccc5ccccc45)c(C(=O)O)[nH]c23)c(COc2ccc(B(O)O)c(C=O)c2)nn1C [7-(3-((4-Borono-3-formylphenoxy)methyl)-1,5-dimethyl-1Hpyrazol-4-yl)-3-(3-(naphthalen-1-yloxy)propyl)-1H-indole-2-carboxylic acid, 5] |
